These are literature values, as cited in patent CN106749267A, “新的表皮生长因子受体抑制剂及其应用” (Nanjing Sanhome Pharmaceutical Co Ltd, priority 2015, dated 2017).

Read-outs that look alike come from different tables or passages of the source.

Regarding `C=CC(=O)Nc1cc(Nc2nccc(-c3cn(C)c4ccccc34)n2)c(OC)cc1N(C)CCN(C)C` [AZD9291], the “blood glucose increase side effect” value (in vivo) is recorded as “一定程度的升高”. In the case of `C=CC(=O)Nc1cccc(Nc2nc(Nc3ccc(N4CCN(C(C)=O)CC4)cc3OC)ncc2C(F)(F)F)c1` [Rociletinib], the “blood glucose increase side effect” value (literature report, hyperglycemia from EGFR TKIs) is “一定程度的升高”.
